For ten compounds, GI50 and TGI results are on record in PubChem BioAssay (NCI).

Among the test systems are HOP-62 NSCLC; HCC-2998 colon; CAKI-1 renal; IGROV1 ovarian; UACC-62 melanoma; T-47D breast; BT-549 breast; A498 renal; SNB-75 CNS; MOLT-4 leukemia.
What all share (test): NCI anticancer screen, dose series, 48 h

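1) Cells in 96-well plates. 2) Compound, 48 h, 5 concentrations. 3) Linear interpolation between surrounding doses. 4) Unreached endpoint = highest concentration. GI50: concentration for 50% inhibition of growth. TGI: total growth inhibition.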

With `Fc1ccc(Nc2nc3ccccc3c3occc23)cc1`, the GI50 with HOP-62 NSCLC is 2.31 µM; in the test with HCC-2998 colon, 1.96 µM; in the test with CAKI-1 renal, 1.89 µM; in the test with IGROV1 ovarian, 2.62 µM; with UACC-62 melanoma it was 12.3 µM; in the test on T-47D breast, 0.135 µM. Besides, the GI50 in the test on BT-549 breast was 15.6 µM. The TGI came out at 13.8 µM in the test with HOP-62 NSCLC; 7.31 µM with HCC-2998 colon; 5.24 µM with CAKI-1 renal; 35.1 µM in the test on IGROV1 ovarian; 24.8 µM with UACC-62 melanoma; 28.9 µM in the test with BT-549 breast.
For the compound `O=C(O[C@H]1CCN2C[C@H]3C[C@H](CN4C(=O)CCC[C@H]34)[C@@H]2C1)c1ccc(O)cc1`, the TGI in the test with HOP-62 NSCLC, in the test on HCC-2998 colon, with A498 renal, in the test on SNB-75 CNS, in the test with CAKI-1 renal and in the test on IGROV1 ovarian was more than 100 µM in each case. The TGI in the test with UACC-62 melanoma, in the test on T-47D breast and with BT-549 breast was more than 100 µM in each case.
Regarding `O=[N+]([O-])c1cc2c([N+](=O)[O-])cccc2o1`, the TGI was 37.2 µM in the test with HOP-62 NSCLC; 35.7 µM in the test on HCC-2998 colon; 43.5 µM in the test with A498 renal; 5.77 µM with CAKI-1 renal; 27.7 µM in the test with UACC-62 melanoma; more than 100 µM in the test with T-47D breast. Further, the TGI in the test on BT-549 breast turned out to be 31.9 µM.
On to `FC(F)(F)c1cc(Nc2ccc3cc(OCCCN4CCOCC4)ccc3n2)ccc1Cl`, for which the GI50 was 1.87 µM in the test on HOP-62 NSCLC; 1.74 µM in the test on HCC-2998 colon; 1.47 µM with A498 renal; 2.16 µM in the test with MOLT-4 leukemia; 1.61 µM in the test with SNB-75 CNS; 1.66 µM in the test with CAKI-1 renal. Moreover, the GI50 in the test on IGROV1 ovarian was 2.62 µM; in the test with T-47D breast, 2.51 µM; in the test with BT-549 breast it was 1.74 µM. Moreover, the TGI was 3.63 µM in the test with HOP-62 NSCLC; 3.38 µM in the test on HCC-2998 colon; 6.27 µM in the test with A498 renal; 6.82 µM in the test with MOLT-4 leukemia; 3.92 µM with SNB-75 CNS; 3.44 µM in the test on CAKI-1 renal. Also, the TGI in the test with IGROV1 ovarian turned out to be 7.49 µM; in the test on T-47D breast, 7.51 µM; with BT-549 breast, 4.07 µM.
Regarding `CSc1ccc(C(=O)/C=C/c2ccccc2Cl)cc1`, the GI50 in the test on HOP-62 NSCLC was 17.4 µM; in the test on HCC-2998 colon, 13.1 µM; in the test with MOLT-4 leukemia, 24 µM; in the test on SNB-75 CNS it was 22.2 µM; in the test with CAKI-1 renal, 15.4 µM; in the test with IGROV1 ovarian it was 4.56 µM. In addition, the results for the GI50 in the test on UACC-62 melanoma, in the test with T-47D breast and in the test on BT-549 breast were 15.7 µM, 23.5 µM and 15.4 µM, respectively. Also, the TGI in the test with HOP-62 NSCLC was 35.4 µM; in the test on HCC-2998 colon it was 28.7 µM; in the test on MOLT-4 leukemia it was more than 100 µM; in the test on SNB-75 CNS, 45.2 µM; with CAKI-1 renal, 30.7 µM; in the test on IGROV1 ovarian it was 17 µM. The TGI with UACC-62 melanoma is 33.5 µM; in the test with T-47D breast, more than 100 µM; in the test on BT-549 breast it was 32.9 µM.
As to `Cc1nccc2c3ccc(OCc4cn(-c5ccc(Cl)cc5)nn4)cc3n(CC(C)C)c12`, the GI50 with HCC-2998 colon is 3.68 µM; with A498 renal it was 1.39 µM; in the test on MOLT-4 leukemia, 1.14 µM; in the test on SNB-75 CNS it was 5.09 µM; in the test with IGROV1 ovarian it was 4.99 µM; in the test with UACC-62 melanoma, 2.31 µM. Also, the GI50 with T-47D breast is 1.34 µM; in the test with BT-549 breast, 1.51 µM. Further, the TGI is more than 33.3 µM in the test on HCC-2998 colon; 9.32 µM with A498 renal; 6.54 µM in the test with MOLT-4 leukemia; 14.4 µM with SNB-75 CNS; 18.7 µM in the test on IGROV1 ovarian; 10.1 µM with UACC-62 melanoma. For the same compound, the TGI with T-47D breast came to 11.3 µM; with BT-549 breast, 7.12 µM.
Turning to `Nc1c(F)cc(-c2nc3cc(F)ccc3[se]2)cc1Br`, the GI50 in the test with HOP-62 NSCLC is 1.83 µM; with HCC-2998 colon, 0.0477 µM; with A498 renal it was 5.4 µM; in the test on MOLT-4 leukemia it was more than 46.5 µM; in the test on SNB-75 CNS, 3.23 µM; in the test on IGROV1 ovarian, 0.0127 µM. In addition, the GI50 is 1.06 µM in the test with UACC-62 melanoma, 0.0578 µM in the test with T-47D breast and 0.334 µM in the test with BT-549 breast. The TGI with HOP-62 NSCLC was more than 100 µM; in the test with HCC-2998 colon, 0.35 µM; in the test with A498 renal it was 36.9 µM; in the test with MOLT-4 leukemia, more than 100 µM; in the test on SNB-75 CNS it was more than 63 µM; in the test on IGROV1 ovarian it was 27.4 µM. Besides, the TGI in the test on UACC-62 melanoma was more than 100 µM; in the test on T-47D breast, 0.631 µM; in the test on BT-549 breast it was more than 27.8 µM.
Regarding `COc1ccc2c(c1OC(C)=O)C1=CC(=O)CCC13CCNC3C2` (configuration not stated), the TGI in the test with HOP-62 NSCLC, in the test on HCC-2998 colon, in the test on MOLT-4 leukemia, with SNB-75 CNS, in the test with CAKI-1 renal and in the test with IGROV1 ovarian was more than 100 µM throughout. For the same compound, the TGI in the test on UACC-62 melanoma, with T-47D breast and with BT-549 breast was more than 100 µM throughout.
Take `CN1CCN(Cc2cc(NC(=O)c3cccc(C#Cc4cccc5[nH]nc(N)c45)c3)cc(C(F)(F)F)c2)CC1`: the GI50 in the test on HOP-62 NSCLC is 1.55 µM; with HCC-2998 colon, 1.99 µM; in the test on A498 renal, 1.01 µM; with SNB-75 CNS it was 1.5 µM; with CAKI-1 renal, 1.68 µM; in the test with IGROV1 ovarian, 2.05 µM. For the same compound, the GI50 in the test on UACC-62 melanoma is 1.69 µM; in the test with BT-549 breast, 1.97 µM. In addition, the TGI amounted to 3 µM in the test on HOP-62 NSCLC; 3.66 µM in the test with HCC-2998 colon; 2.22 µM in the test on A498 renal; 2.92 µM in the test on SNB-75 CNS; 3.06 µM with CAKI-1 renal; 4.07 µM in the test with IGROV1 ovarian. In addition, the results for the TGI with UACC-62 melanoma and with BT-549 breast were 3.22 µM and 3.62 µM, respectively.
Consider `COC1=CC(=O)c2nc(Cl)ccc2C1=O`, for which the GI50 is 1.94 µM with HOP-62 NSCLC; 11.4 µM in the test on HCC-2998 colon; 12 µM with A498 renal; 0.807 µM in the test on MOLT-4 leukemia; 1.35 µM with SNB-75 CNS; 1.91 µM in the test with CAKI-1 renal. Besides, the GI50 is 1.86 µM in the test with IGROV1 ovarian, 1.77 µM in the test on UACC-62 melanoma and 2.54 µM in the test with BT-549 breast. Further, the TGI with HOP-62 NSCLC was 3.4 µM; with HCC-2998 colon, 23.6 µM; in the test on A498 renal, 24.3 µM; with MOLT-4 leukemia, 7.77 µM; in the test on SNB-75 CNS it was 2.73 µM; in the test with CAKI-1 renal, 3.74 µM. For the same compound, the figures for the TGI in the test with IGROV1 ovarian, in the test on UACC-62 melanoma and in the test with BT-549 breast were 3.54 µM, 3.45 µM and 6.42 µM, respectively.
